What is called Kd is the free concentration of one partner at which half of the binding sites on the other are occupied at equilibrium, for simple one-to-one binding. A word on the CC50: it is the concentration giving 50% cytotoxicity. Read a low CC50 as greater toxicity to the cells.

The values below come from patent US8399683B2 (TetraLogic Pharmaceuticals, priority 2008, dated 2013).

One assay addresses cIAP-1 BIR-3 (Homo sapiens, UniProt Q13490). The experiment in a line: Fluorescence polarization binding affinity to cIAP-1 BIR-3 (competition with AbuRPF-K(5-Fam)-NH2). As to conditions: 5 nM labeled peptide, 40 nM BIR3, 15 min at RT, pH 7.5; reported as ranges; read-out: KD (c-IAP-1 BIR3). The method in brief:
(§1)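 Test peptides at varied concentrations competed with 5 nM fluorescent Smac-mimetic tracer for 40 nM BIR3 domain, 15 min at RT in 0.1M potassium phosphate pH 7.5 with […] bovine g-globulin. Polarization (mP) read at 485/520 nm; KD reported in bins (A=<0.1 μM, B=0.1–1 μM, C>1–10 μM, D=>10 μM).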
(In general: In fluorescence polarisation assays a small probe gives low polarisation when free and higher when bound to something large.)

For another assay, the system named is SK-OV-3 cells. The experiment in a line: Growth inhibition of ovarian cancer cell line SK-OV-3 (MTT assay, cell survival). It counts as cell-based. As to conditions: Homo sapiens, drug concentration that results in 50% cell survival, 72 hrs incubation, reported as ranges. A digest of the protocol:
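After overnight seeding in McCoy's medium with 10% FBS, SK-OV-3 cells were exposed to compound at 0.003-10 μM for 72 hrs at 37° C. MTT was then added for 3 h, with DMSO solubilization and OD read at 535 nm. CC50 is the concentration giving 50% survival relative to untreated control, reported as ranges.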
In general terms: Tetrazolium assays rely on reduction of a dye to a coloured formazan, in cell work by metabolically active cells.

Another assay addresses T1, XIAP BIR-3 (Homo sapiens, UniProt P98170).
T1 construct: 40 nM of the respective IAP BIR3
Put plainly: Fluorescence polarization binding affinity to XIAP BIR-3 (competition with AbuRPF-K(5-Fam)-NH2). As to conditions: 5 nM labeled peptide, 40 nM BIR3, 15 min at RT, pH 7.5; reported as ranges. The method in brief:
as §1

Some results are limits rather than exact numbers.

Sequence of cIAP-1 BIR-3 (Q13490 266-352 limits assumed): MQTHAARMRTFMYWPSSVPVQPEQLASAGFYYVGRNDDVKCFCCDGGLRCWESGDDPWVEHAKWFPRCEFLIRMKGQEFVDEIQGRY
T1 sequence (P98170 241-356 limits assumed): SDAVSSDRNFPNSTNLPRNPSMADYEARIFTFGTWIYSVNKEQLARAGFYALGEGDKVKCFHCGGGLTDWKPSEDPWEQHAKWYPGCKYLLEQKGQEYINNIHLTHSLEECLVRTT

With `CN[C@@H](C)C(=O)N[C@H](C(=O)N1CC[C@@H]2[C@H]1[C@@H](c1c[nH]c3ccc(F)cc13)CN2C(C)=O)[C@@H](C)O` [Example 74, N-{1-[4-Acetyl-6-(5-fluoro-1H-indol-3-yl)-hexahydro-pyrrolo[3,2-b]pyrrole-1-carbonyl]-2-hydroxy-propyl}-2-methylamino-propionamide], the Kd at cIAP-1 BIR-3 and at XIAP BIR-3 was less than 100 nM throughout. In addition, in the assay on SK-OV-3 cells, the CC50 lay within 100 to 1000 nM.
For the compound `CN[C@@H](C)C(=O)N[C@H](C(=O)N1CC[C@@H]2[C@H]1[C@@H](c1c[nH]c3cc(F)ccc13)CN2c1ncccn1)C1CCCCC1` [Example 75, N-{1-Cyclohexyl-2-[6-(6-fluoro-1H-indol-3-yl)-4-pyrimidin-2-yl-hexahydro-pyrrolo[3,2-b]pyrrol-1-yl]-2-oxo-ethyl}-2-methylamino-propionamide], the Kd at cIAP-1 BIR-3 and on XIAP BIR-3 was less than 100 nM in each case. This compound also had a CC50 in the assay on SK-OV-3 cells of less than 100 nM.
As for `CN[C@@H](C)C(=O)N[C@H](C(=O)N1CC[C@@H]2[C@H]1[C@@H](c1c[nH]c3cc(F)ccc13)CN2c1nccc(Cl)n1)C1CCCCC1` [Example 76, N-{2-[4-(4-Chloro-pyrimidin-2-yl)-6-(6-fluoro-1H-indol-3-yl)-hexahydro-pyrrolo[3,2-b]pyrrol-1-yl]-1-cyclohexyl-2-oxo-ethyl}-2-methylamino-propionamide], the Kd on cIAP-1 BIR-3 and at XIAP BIR-3 was less than 100 nM each time. Further, in the assay with SK-OV-3 cells, the CC50 is less than 100 nM.
On to `CN[C@@H](C)C(=O)N[C@H](C(=O)N1CC[C@@H]2[C@H]1[C@@H](c1c[nH]c3cc(F)ccc13)CN2c1ncccn1)C(C)C` [Example 77, N-{1-[6-(6-Fluoro-1H-indol-3-yl)-4-pyrimidin-2-yl-hexahydro-pyrrolo[3,2-b]pyrrole-1-carbonyl]-2-methyl-propyl}-2-methylamino-propionamide], for which the Kd on cIAP-1 BIR-3 and at XIAP BIR-3 was less than 100 nM in each case. Moreover, the CC50 in the assay on SK-OV-3 cells is less than 100 nM.
In the case of `CC[C@H](NC(=O)[C@H](C)NC)C(=O)N1CC[C@@H]2[C@H]1[C@@H](c1c[nH]c3cc(F)ccc13)CN2c1ncccn1` [Example 78, N-{1-[6-(6-Fluoro-1H-indol-3-yl)-4-pyrimidin-2-yl-hexahydro-pyrrolo[3,2-b]pyrrole-1-carbonyl]-propyl}-2-methylamino-propionamide], the Kd on cIAP-1 BIR-3 is less than 100 nM; on XIAP BIR-3 it was 100 to 1000 nM. Further, the CC50 with SK-OV-3 cells is less than 100 nM.
In the case of `CN[C@@H](C)C(=O)N[C@H](C(=O)N1CC[C@@H]2[C@H]1[C@@H](c1c[nH]c3cc(F)ccc13)CN2c1ncccn1)C(C)(C)C` [Example 79, N-{1-[6-(6-Fluoro-1H-indol-3-yl)-4-pyrimidin-2-yl-hexahydro-pyrrolo[3,2-b]pyrrole-1-carbonyl]-2,2-dimethyl-propyl}-2-methylamino-propionamide], the Kd on cIAP-1 BIR-3 and at XIAP BIR-3 was less than 100 nM in each case. Further, in the assay with SK-OV-3 cells, the CC50 was less than 100 nM.
Turning to `CN[C@@H](C)C(=O)N[C@@H](CO)C(=O)N1CC[C@@H]2[C@H]1[C@@H](c1c[nH]c3cc(F)ccc13)CN2c1ncccn1` [Example 80, N-{2-[6-(6-Fluoro-1H-indol-3-yl)-4-pyrimidin-2-yl-hexahydro-pyrrolo[3,2-b]pyrrol-1-yl]-1-hydroxymethyl-2-oxo-ethyl}-2-methylamino-propionamide], the Kd at cIAP-1 BIR-3 and at XIAP BIR-3 was less than 100 nM in each case. The CC50 in the assay with SK-OV-3 cells is less than 100 nM.
Take `CN[C@@H](C)C(=O)N[C@@H](COC)C(=O)N1CC[C@@H]2[C@H]1[C@@H](c1c[nH]c3cc(F)ccc13)CN2c1ncccn1` [Example 81, N-{2-[6-(6-Fluoro-1H-indol-3-yl)-4-pyrimidin-2-yl-hexahydro-pyrrolo[3,2-b]pyrrol-1-yl]-1-methoxymethyl-2-oxo-ethyl}-2-methylamino-propionamide]: the Kd at cIAP-1 BIR-3 and on XIAP BIR-3 was less than 100 nM throughout. In the assay with SK-OV-3 cells, this compound yielded a CC50 of less than 100 nM.
Take `CN[C@@H](C)C(=O)N[C@H](C(=O)N1CC[C@@H]2[C@H]1[C@@H](c1c[nH]c3cc(F)ccc13)CN2c1ncccn1)[C@@H](C)O` [Example 82, N-{1-[6-(6-Fluoro-1H-indol-3-yl)-4-pyrimidin-2-yl-hexahydro-pyrrolo[3,2-b]pyrrole-1-carbonyl]-2-hydroxy-propyl}-2-methylamino-propionamide]: the Kd at cIAP-1 BIR-3 and at XIAP BIR-3 was less than 100 nM in each case. Moreover, the CC50 with SK-OV-3 cells was less than 100 nM.
On to `CN[C@@H](C)C(=O)N[C@H](C(=O)N1CC[C@@H]2[C@H]1[C@@H](c1c[nH]c3cc(F)ccc13)CN2c1ncccn1)[C@@H](C)OC` [Example 83, N-{1-[6-(6-Fluoro-1H-indol-3-yl)-4-pyrimidin-2-yl-hexahydro-pyrrolo[3,2-b]pyrrole-1-carbonyl]-2-methoxy-propyl}-2-methylamino-propionamide], for which the Kd at cIAP-1 BIR-3 and at XIAP BIR-3 was less than 100 nM in each case. In the assay on SK-OV-3 cells, this compound had a CC50 of less than 100 nM.
Regarding `CN[C@@H](C)C(=O)N[C@H](C(=O)N1C[C@@H](O)[C@@H]2[C@H]1[C@@H](c1c[nH]c3cc(F)ccc13)CN2C(=O)OCc1ccccc1)C1CCCCC1` [Example 84, 4-[2-Cyclohexyl-2-(2-methylamino-propionylamino)-acetyl]-3S-(6-fluoro-1H-indol-3-yl)-6-hydroxy-hexahydro-pyrrolo[3,2-b]pyrrole-1-carboxylic acid benzyl ester], the Kd on cIAP-1 BIR-3 and at XIAP BIR-3 was less than 100 nM each time. The compound further returned a CC50 in the assay with SK-OV-3 cells of less than 100 nM.
As to `CN[C@@H](C)C(=O)N[C@H](C(=O)N1C[C@@H](O)[C@H]2NC[C@H](c3c[nH]c4cc(F)ccc34)[C@H]21)C1CCCCC1` [Example 85], the Kd at cIAP-1 BIR-3 is less than 100 nM; on XIAP BIR-3, 100 to 1000 nM. The CC50 in the assay with SK-OV-3 cells lay within 100 to 1000 nM.
For `CN[C@@H](C)C(=O)N[C@H](C(=O)N1C[C@@H](O)[C@H]2NC[C@@H](c3c[nH]c4cc(F)ccc34)[C@H]21)C1CCCCC1` [Example 86, N-{1-Cyclohexyl-2-[6R-(6-fluoro-1H-indol-3-yl)-3-hydroxy-hexahydro-pyrrolo[3,2-b]pyrrol-1-yl]-2-oxo-ethyl}-2-methylamino-propionamide], the Kd on cIAP-1 BIR-3 is 100 to 1000 nM; on XIAP BIR-3 it was greater than 10000 nM. This compound showed a CC50 in the assay with SK-OV-3 cells greater than 10000 nM.
With `CN[C@@H](C)C(=O)N[C@H](C(=O)N1CC[C@H]2NC[C@@H](c3c[nH]c4cc(F)ccc34)[C@H]21)C1CCCCC1` [Example 87], the Kd was 1000 to 10000 nM on cIAP-1 BIR-3 and greater than 10000 nM at XIAP BIR-3. Besides, the CC50 with SK-OV-3 cells is greater than 10000 nM.
For the compound `C[C@H](N)C(=O)N[C@H](C(=O)N1CC[C@H]2NC[C@H](c3c[nH]c4cc(F)ccc34)[C@H]21)C1CCCCC1` [Example 88], the dissociation constant (Kd) at cIAP-1 BIR-3 and on XIAP BIR-3 was less than 100 nM in each case. In the assay on SK-OV-3 cells, this compound yielded a CC50 greater than 10000 nM.
As for `CN[C@@H](C)C(=O)N[C@H](C(=O)N1CC[C@H]2NC[C@@H](c3c[nH]c4ccccc34)[C@H]21)[C@@H](C)OC` [Example 89], the Kd at cIAP-1 BIR-3 was 100 to 1000 nM; at XIAP BIR-3 it was greater than 10000 nM. In addition, the CC50 with SK-OV-3 cells was greater than 10000 nM.
Consider `CN[C@@H](C)C(=O)N[C@H](C(=O)N1CC[C@H]2NC[C@H](c3c[nH]c4ccccc34)[C@H]21)[C@@H](C)OC` [Example 90], for which the Kd on cIAP-1 BIR-3 and at XIAP BIR-3 was less than 100 nM throughout. In addition, in the assay on SK-OV-3 cells, the CC50 fell in the range of 1000 to 10000 nM.
With `CN[C@@H](C)C(=O)N[C@H](C(=O)N1CC[C@H]2NC[C@H](c3cn(Cc4ccccc4)c4cc(F)ccc34)[C@H]21)C1CCCCC1` [Example 91], the Kd on cIAP-1 BIR-3 and at XIAP BIR-3 was less than 100 nM each time. Besides, in the assay on SK-OV-3 cells, the CC50 is 100 to 1000 nM.
As to `C[C@H](N)C(=O)N[C@H](C(=O)N1CC[C@H]2NC[C@H](c3cn(Cc4ccccc4)c4cc(F)ccc34)[C@H]21)C1CCCCC1` [Example 92], the Kd on cIAP-1 BIR-3 and at XIAP BIR-3 was less than 100 nM each time. In the assay on SK-OV-3 cells, this compound gave a CC50 of 1000 to 10000 nM.
Consider `CO[C@H](C)[C@H](NC(=O)[C@H](C)N)C(=O)N1CC[C@H]2NC[C@H](c3cn(Cc4ccccc4)c4cc(F)ccc34)[C@H]21` [Example 93], for which the Kd at cIAP-1 BIR-3 and on XIAP BIR-3 was less than 100 nM each time. This compound also had a CC50 with SK-OV-3 cells of 1000 to 10000 nM.
`CC(=O)N1C[C@H](c2c[nH]c3cc(F)ccc23)[C@@H]2[C@H]1CCN2C(=O)[C@@H](NC(=O)[C@H](C)N)C1CCCCC1` [Example 94]: the Kd on cIAP-1 BIR-3 and at XIAP BIR-3 was less than 100 nM throughout. The compound also registered a CC50 in the assay with SK-OV-3 cells of 1000 to 10000 nM.
Regarding `CN[C@@H](C)C(=O)NC(C)C(=O)N1CC[C@@H]2[C@H]1[C@@H](c1c[nH]c3cc(F)ccc13)CN2C(C)=O` (stereo partly drawn) [Example 95], the Kd on cIAP-1 BIR-3 and at XIAP BIR-3 was less than 100 nM in each case. In addition, in the assay with SK-OV-3 cells, the CC50 was in the range of 100 to 1000 nM.
As for `CN[C@@H](C)C(=O)N[C@H](C(=O)N1CC[C@@H]2[C@H]1[C@H](c1c[nH]c3cc(F)ccc13)CN2C(C)=O)C1CCCCC1` [Example 96], the Kd at cIAP-1 BIR-3 lay in the range of 100 to 1000 nM; on XIAP BIR-3 it was 1000 to 10000 nM. Further, the CC50 with SK-OV-3 cells was in the range of 1000 to 10000 nM.
For the compound `CN[C@@H](C)C(=O)N[C@H](C(=O)N1CC[C@@H]2[C@H]1[C@@H](c1c[nH]c3ccccc13)CN2C1CCCCC1)[C@@H](C)OC` [Example 97], the Kd at cIAP-1 BIR-3 lay in the range of 100 to 1000 nM; at XIAP BIR-3, 1000 to 10000 nM. The compound further displayed a CC50 in the assay with SK-OV-3 cells of 100 to 1000 nM.
